Tested on: MDA-MB-231 complex spheroids, growth inhibition
Test: Anticancer human tumor MDA-MB-231 cell line growth inhibition [Asc];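 also: spheroids exposed to compounds for 7 days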
Conditions: for viability, T/C: stronger effect = lower value
Outline: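 Tumor cells were grown as complex spheroids with human endothelial cells (HUVEC) and human mesenchymal stem cells as stroma. Agents were tested alone and in combination, in half-log steps down from the clinical Cmax, or from 10 microM where Cmax was unknown.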

[1] = curve of first compound, second compound 0.1 µM
[2] = curve of first compound, second compound 0.316 µM
[3] = curve of first compound, second compound 1 µM
[4] = second compound 0.1 µM, first compound 0.0316 µM
[5] = second compound 0.1 µM, first compound 0.1 µM
[6] = second compound 0.316 µM, first compound 0.0316 µM
[7] = second compound 0.316 µM, first compound 0.1 µM
[8] = second compound 1 µM, first compound 0.0316 µM
[9] = second compound 1 µM, first compound 0.1 µM

For `C=C(F)C(=O)N1CCN(c2nc(OCC3CCCN3C)nc3c2CCN(c2cccc4cccc(Cl)c24)C3)CC1CC#N` (stereo unspecified) + Cc1c(S(C)(=O)=O)c(-c2cc(F)cc(N3CCN(c4ccc(NS(=O)(=O)c5ccc(NC(CCN6CCC(C(=O)OCCCP(=O)(O)O)CC6)CSc6ccccc6)c(S(=O)(=O)C(F)(F)F)c5)cc4)CC3)c2)c(-c2ccc(Cl)cc2)n1C(C)C, which IC50 [1] is on record?
The IC50 was 2.29 µM.

And the IC50 [2]?
Its IC50 is 2.11 µM.

And the IC50 [3]?
The IC50 was 1.85 µM.

What about the IC50 (curve of first compound, second compound 3.16 µM) of the same molecule?
Its IC50 is 1.74 µM.

What about the IC50 (curve of first compound, second compound 10 µM) of the same molecule?
Its IC50 is 1.71 µM.

What about the viability, T/C [4] of the same molecule?
Its viability, T/C is 92.2%.

And the viability, T/C [5]?
Its viability, T/C is 97.2%.

What about the viability, T/C (second compound 0.1 µM, first compound 0.316 µM) of the same molecule?
The viability, T/C was 97.2%.

And the viability, T/C (second compound 0.1 µM, first compound 1 µM)?
The viability, T/C was 101%.

And the viability, T/C (second compound 0.1 µM, first compound 3.16 µM)?
The viability, T/C was 31.6%.

And the viability, T/C (second compound 0.1 µM, first compound 10 µM)?
Its viability, T/C is 0.12%.

And the viability, T/C [6]?
The viability, T/C was 106%.

And the viability, T/C [7]?
Its viability, T/C is 108%.

And the viability, T/C (second compound 0.316 µM, first compound 0.316 µM)?
Its viability, T/C is 106%.

And the viability, T/C (second compound 0.316 µM, first compound 1 µM)?
The viability, T/C was 109%.

What about the viability, T/C (second compound 0.316 µM, first compound 3.16 µM) of the same molecule?
Its viability, T/C is 18.6%.

What about the viability, T/C (second compound 0.316 µM, first compound 10 µM) of the same molecule?
The viability, T/C was 0.09%.

What about the viability, T/C [8] of the same molecule?
Its viability, T/C is 103%.

What about the viability, T/C [9] of the same molecule?
Its viability, T/C is 100%.

And the viability, T/C (second compound 1 µM, first compound 0.316 µM)?
The viability, T/C was 97.5%.

What about the viability, T/C (second compound 1 µM, first compound 1 µM) of the same molecule?
Its viability, T/C is 97.4%.

And the viability, T/C (second compound 1 µM, first compound 3.16 µM)?
Its viability, T/C is 8.81%.

What about the viability, T/C (second compound 1 µM, first compound 10 µM) of the same molecule?
The viability, T/C was 0.09%.

And the viability, T/C (second compound 3.16 µM, first compound 0.0316 µM)?
Its viability, T/C is 95.8%.

And the viability, T/C (second compound 3.16 µM, first compound 0.1 µM)?
The viability, T/C was 93%.

And the viability, T/C (second compound 3.16 µM, first compound 0.316 µM)?
Its viability, T/C is 94.9%.

What about the viability, T/C (second compound 3.16 µM, first compound 1 µM) of the same molecule?
Its viability, T/C is 91.8%.

What about the viability, T/C (second compound 3.16 µM, first compound 3.16 µM) of the same molecule?
The viability, T/C was 4.45%.

And the viability, T/C (second compound 3.16 µM, first compound 10 µM)?
The viability, T/C was 0.09%.

And the viability, T/C (second compound 10 µM, first compound 0.0316 µM)?
The viability, T/C was 104%.

And the viability, T/C (second compound 10 µM, first compound 0.1 µM)?
Its viability, T/C is 100%.

What about the viability, T/C (second compound 10 µM, first compound 0.316 µM) of the same molecule?
Its viability, T/C is 99.7%.

What about the viability, T/C (second compound 10 µM, first compound 1 µM) of the same molecule?
The viability, T/C was 91.3%.

What about the viability, T/C (second compound 10 µM, first compound 3.16 µM) of the same molecule?
The viability, T/C was 2.9%.

What about the viability, T/C (second compound 10 µM, first compound 10 µM) of the same molecule?
Its viability, T/C is 0.14%.

Which IC50 (curve of first compound, second compound 0.01 µM) does the source give for `Cn1ncnc1[C@H]1c2n[nH]c(=O)c3cc(F)cc(c23)N[C@@H]1c1ccc(F)cc1` + CNC(C)C(=O)NC1CN(S(=O)(=O)c2cccc(S(=O)(=O)N3CCC4CCC(C(=O)NC(c5ccccc5)c5ccccc5)N4C(=O)C(NC(=O)C(C)NC)C3)c2)CCC2CCC(C(=O)NC(c3ccccc3)c3ccccc3)N2C1=O here?
Its IC50 is under 0.000316 µM.

What about the IC50 (curve of first compound, second compound 0.0316 µM) of the same molecule?
Its IC50 is under 0.000316 µM.

What about the IC50 [1] of the same molecule?
Its IC50 is under 0.000316 µM.

What about the IC50 [2] of the same molecule?
Its IC50 is under 0.000316 µM.

And the IC50 [3]?
The IC50 was under 0.000316 µM.

And the viability, T/C (second compound 0.01 µM, first compound 0.000316 µM)?
The viability, T/C was 1.83%.

And the viability, T/C (second compound 0.01 µM, first compound 0.001 µM)?
The viability, T/C was 2.14%.

What about the viability, T/C (second compound 0.01 µM, first compound 0.00316 µM) of the same molecule?
The viability, T/C was 2.04%.

And the viability, T/C (second compound 0.01 µM, first compound 0.01 µM)?
The viability, T/C was 2.04%.

And the viability, T/C (second compound 0.01 µM, first compound 0.0316 µM)?
The viability, T/C was 1.45%.

And the viability, T/C (second compound 0.01 µM, first compound 0.1 µM)?
The viability, T/C was 1.63%.

What about the viability, T/C (second compound 0.0316 µM, first compound 0.000316 µM) of the same molecule?
The viability, T/C was 1.73%.

What about the viability, T/C (second compound 0.0316 µM, first compound 0.001 µM) of the same molecule?
Its viability, T/C is 1.45%.

And the viability, T/C (second compound 0.0316 µM, first compound 0.00316 µM)?
Its viability, T/C is 1.76%.

And the viability, T/C (second compound 0.0316 µM, first compound 0.01 µM)?
The viability, T/C was 1.3%.

What about the viability, T/C (second compound 0.0316 µM, first compound 0.0316 µM) of the same molecule?
Its viability, T/C is 1.2%.

And the viability, T/C (second compound 0.0316 µM, first compound 0.1 µM)?
Its viability, T/C is 1.22%.

And the viability, T/C (second compound 0.1 µM, first compound 0.000316 µM)?
The viability, T/C was 1.17%.

And the viability, T/C (second compound 0.1 µM, first compound 0.001 µM)?
The viability, T/C was 1.47%.

What about the viability, T/C (second compound 0.1 µM, first compound 0.00316 µM) of the same molecule?
Its viability, T/C is 0.96%.

And the viability, T/C (second compound 0.1 µM, first compound 0.01 µM)?
Its viability, T/C is 1.19%.

And the viability, T/C [4]?
The viability, T/C was 1.34%.

What about the viability, T/C [5] of the same molecule?
Its viability, T/C is 1.16%.

What about the viability, T/C (second compound 0.316 µM, first compound 0.000316 µM) of the same molecule?
The viability, T/C was 1.12%.

And the viability, T/C (second compound 0.316 µM, first compound 0.001 µM)?
The viability, T/C was 1.11%.

What about the viability, T/C (second compound 0.316 µM, first compound 0.00316 µM) of the same molecule?
Its viability, T/C is 1.32%.

And the viability, T/C (second compound 0.316 µM, first compound 0.01 µM)?
Its viability, T/C is 0.91%.

And the viability, T/C [6]?
Its viability, T/C is 1.05%.

What about the viability, T/C [7] of the same molecule?
The viability, T/C was 1.11%.

What about the viability, T/C (second compound 1 µM, first compound 0.000316 µM) of the same molecule?
Its viability, T/C is 1.53%.

What about the viability, T/C (second compound 1 µM, first compound 0.001 µM) of the same molecule?
The viability, T/C was 1.2%.

What about the viability, T/C (second compound 1 µM, first compound 0.00316 µM) of the same molecule?
The viability, T/C was 1.23%.

What about the viability, T/C (second compound 1 µM, first compound 0.01 µM) of the same molecule?
The viability, T/C was 1.23%.

And the viability, T/C [8]?
The viability, T/C was 1.28%.

What about the viability, T/C [9] of the same molecule?
The viability, T/C was 1.26%.

How did the viability, T/C (compound 0.1 µM) turn out when `Cc1c(S(C)(=O)=O)c(-c2cc(F)cc(N3CCN(c4ccc(NS(=O)(=O)c5ccc(NC(CCN6CCC(C(=O)OCCCP(=O)(O)O)CC6)CSc6ccccc6)c(S(=O)(=O)C(F)(F)F)c5)cc4)CC3)c2)c(-c2ccc(Cl)cc2)n1C(C)C` (stereo unspecified) was run?
The viability, T/C was 96.4% [middle of 14 runs].

What about the viability, T/C (compound 0.316 µM) of the same molecule?
Its viability, T/C is 105% [middle of 14 runs].

What about the viability, T/C (compound 1 µM) of the same molecule?
The viability, T/C was 98.3% [middle of 14 runs].

And the viability, T/C (compound 3.16 µM)?
The viability, T/C was 98.5% [middle of 14 runs].

What about the viability, T/C (compound 10 µM) of the same molecule?
The viability, T/C was 95% [middle of 14 runs].

And the IC50 (compound alone, run of 10/11/2022)?
The IC50 was over 10 µM.
